pEC50, pIC50: −log10 of the molar value.
Tests used:
[1] = Inhibition of NADH-ubiquinone oxidoreductase assessed by NADH oxidase activity in beef heart submitochondrial particles; set-up: species or system Bos taurus
MCF7 = test: Antitumor activity against human MCF7 cells after 24 hrs by MTT assay; assay type: functional; details: MCF7, 24 h, read-out: ED50 (the source's name)
HepG2 = test: Antitumor activity against human HepG2 cells after 24 hrs by MTT assay; assay type: functional; details: HepG2, 24 h, read-out: ED50 (the source's name)
HT-29 = test: Antitumor activity against human HT29 cells after 24 hrs by MTT assay; assay type: functional; details: HT-29, 24 h, read-out: ED50 (the source's name)
A549 = test: Antitumor activity against human A549 cells after 24 hrs by MTT assay; assay type: functional; details: A549, 24 h, read-out: ED50 (the source's name)
[2] = Antitumor activity against human MES-SA cells after 24 hrs by MTT assay; assay type: functional; details: read-out: ED50 (the source's name)
[3] = Antitumor activity against doxorubucin-resistant human MES-SA/Dx5 cells by MTT assay after 24 hrs; assay type: functional; details: MES-SA/Dx5, 24 h, read-out: ED50 (the source's name)

Row | SMILES | pIC50 [1] | pEC50 (MCF7) | pEC50 (HepG2) | pEC50 (HT-29) | pEC50 (A549) | pEC50 [2] | pEC50 [3]
1 | CCCCCCCCCC[C@H](OC(C)=O)[C@H]1CC[C@H]([C@H]2CC[C@H]([C@H](O)CCCCC(=O)CCCCCCCC3=C[C@H](C)OC3=O)O2)O1 | 8.47 | 4.30 | 4.74 | 3.81 | 3.72 | 4.37 | 4.08
2 | CCCCCCCCCC[C@H](O)[C@H]1CC[C@H]([C@H]2CC[C@H]([C@@H](CCCCC(=O)CCCCCCCC3=C[C@H](C)OC3=O)OC(C)=O)O2)O1 | 8.55 | 4.18 | 4.29 | 3.77 | 4.00 | 4.12 | 4.01
3 | CCCCCCCCCC[C@H](OC(C)=O)[C@H]1CC[C@H]([C@H]2CC[C@H]([C@@H](CCCCC(=O)CCCCCCCC3=C[C@H](C)OC3=O)OC(C)=O)O2)O1 | 9.40 | 4.54 | 5.05 | 3.71 | 4.22 | 4.55 | 4.25
4 | COc1cccc2c1C(=O)c1c(O)c3c(c(O)c1C2=O)C[C@@](O)(C(=O)CO)C[C@@H]3O[C@H]1C[C@H](N)[C@H](O)[C@H](C)O1 [DOXORUBICIN] | – | 5.10 | 3.99 | 3.56 | 3.82 | 3.76 | < 3.30
5 | CCCCCCCCCC[C@H](O)[C@H]1CC[C@H]([C@H]2CC[C@H]([C@H](O)CCCCC(=O)CCCCCCCC3=C[C@H](C)OC3=O)O2)O1 [GUANACONE] | 8.92 | 4.41 | 4.96 | 4.15 | 3.83 | 4.66 | 4.28
6 | C=C(C)[C@H]1Cc2c(ccc3c2O[C@@H]2COc4cc(OC)c(OC)cc4[C@@H]2C3=O)O1 [ROTENONE] | 8.29 | 3.79 | 4.82 | 3.69 | 4.59 | 3.83 | 3.67
